The source of these data is ChEMBL document CHEMBL1144991, “Autoradiographic visualization of corticotropin releasing hormone type 1 receptors with a nonpeptide ligand: synthesis of [(76)Br]MJL-1-109-2” (J Med Chem, 2003).

The assay has as its target T1, Corticotropin-releasing factor receptor 1 (Rattus norvegicus, UniProt P35353).
T1 sequence (P35353 whole entry): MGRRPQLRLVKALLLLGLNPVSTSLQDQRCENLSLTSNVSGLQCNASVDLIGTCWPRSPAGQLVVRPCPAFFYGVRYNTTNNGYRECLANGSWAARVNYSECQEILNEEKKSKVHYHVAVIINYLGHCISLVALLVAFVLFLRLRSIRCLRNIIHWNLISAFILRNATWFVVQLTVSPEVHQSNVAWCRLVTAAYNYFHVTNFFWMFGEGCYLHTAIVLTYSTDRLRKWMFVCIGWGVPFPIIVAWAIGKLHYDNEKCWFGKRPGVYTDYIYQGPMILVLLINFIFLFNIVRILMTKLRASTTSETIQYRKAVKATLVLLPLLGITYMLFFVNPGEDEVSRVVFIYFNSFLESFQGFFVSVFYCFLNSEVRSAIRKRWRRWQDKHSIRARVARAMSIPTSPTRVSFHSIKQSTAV
Briefly: Affinity for the Corticotropin releasing factor receptor 1 (CRHR1) was determined in rat brain. The class given is tissue-based.

The molecule `COCCN(CCOC)c1nc(C)nc2c(-c3ccc(Br)cc3Cl)c(C)nn12` registered a Ki of 1.9 nM.

Regarding `CCCCN(CC)c1nc(C)nc2c1c(C)c(C)n2-c1c(C)cc(C)cc1C` [ANTALARMIN], the Ki was 1 nM.
